Data taken from US5861296A, “Purified thermostable inorganic pyprophosphatase obtainable from thermococcus litoralis” (New England Biolabs, Inc., priority 1997, dated 1999).
Values belong to the molecule of their own block, whether it stands above or below them.

What was measured:
[1] = target: Thermococcus litoralis inorganic pyrophosphatase (PPase), wild type, SEQ ID NO: 10 (Thermococcus litoralis, UniProt P77992); conditions: read-out: apparent Km for PPi (inorganic pyrophosphate); initial velocities at low substrate concentrations, Mg2+/PPi ratio of one; Lineweaver-Burke plot
Experimental: The PPase is incubated at 75° C. for 10 minutes in a 100 μl reaction containing 30 mM Tris pH 9.0, 1.5 mM MgCl2 and 1.5 mM sodium pyrophosphate. The enzyme is then cooled quickly to room temperature and complexed with 0.9 ml of Taussky-Schorr reagent (5.0 g ferrous sulfate, 10 ml 10% ammonium molybdate in 10N sulfuric acid, in a final solution volume of 100 ml.) After 10 minutes, an absorbance reading is taken at 660 nm. The absorbance reading was compared to a standard curve using Sigma's (St. Louis, Mo.) phosphorous standard (#661-9). One standard unit will liberate 1.0 μmole of inorganic orthophosphate per minute under the above conditions.

[2] = target: the molecule itself; assay: gel filtration on Superose 12 HR 10/30 (125 kDa) against the subunit mass by SDS-PAGE and DNA sequence
Experimental: The molecular mass of the *T. litoralis* inorganic pyrophosphatase was estimated by gel filtration in a Superose 12 HR 10/30 (Pharmacia; Piscataway, N.J.) (10×300 mm). The column was equilibrated with 50 mM Tris-HCl pH 7.5 containing 100 mM NaCl and run at a flow rate of 0.5 ml/min. The Superose 12 HR 10/30 had been previously calibrated with different standard proteins: Catalase (232 kDa), Aldolase (158 kDa), Bovine Serum Albumin (67 KDa), Ovalbumin (43 kDa), Chymotrypsinogen (25 kDa), and Ribonuclease A (13.7 kDa) (all from Pharmacia; Piscataway, N.J.). From the plot of log (molecular mass) versus the distribution coefficient (Kav), a value of 125 kDa was calculated for the molecular mass of *T. litoralis* inorganic pyrophosphatase. Since the apparent molecular mass of the monomer was determined to be 20 to 21 kDa on an SDS-PAGE and 19,666 Da by the DNA sequence, the enzyme is probably homohexameric. The homohexameric structure of the *Thermococcus litoralis* inorganic pyrophosphatase agrees with other known cytoplasmic PPases from eubacterial and archaeal sources which tend to be tetrameric or hexameric complexes with single subunits of 19 to 23 kDa.

Km [1]: 1000 µM
Molecule: O=P(O)(O)OP(=O)(O)O [PPi, inorganic pyrophosphate]

B1: Thermococcus litoralis inorganic pyrophosphatase subunit (enzyme)
chain: MNPFHDLEPGPEVPEVVYALIEIPKGSRNKYELDKKTGLIKLDRVLYSPFHYPVDYGIIPQTWYDDDDPFDIMVIMREPTYPGVLIEARPIGLFKMIDSGDKDYKVLAVPVEDPYFNDWKDISDVPKAFLDEIAHFFQRYKELQGKEIIVEGWENAEKAKQEILRAIELYKEKFKK
binding result [2]: binds
